Assay results taken from PubChem BioAssay AID1963866 (Molecular Pharmacology Branch, DTP, NCI, 2024).

Test system: PDC KRAS tumor spheroids with HUVEC/MSC, viability
Experiment: Anticancer human tumor 349418-098-R-PDC patient-derived lung adenocarcinoma cell line growth inhibition [KRAS2]
Details: for IC50: curve of first compound; for viability, T/C: stronger effect = lower value
Description: Multicellular complex tumor spheroid response to RAS pathway inhibitors in combination with a targeted agents in patient-derived cell lines with oncogenic KRAS variants from multiple cancer types
A high-throughput screen of multi-cell type tumor spheroids was designed to identify active combinations of targeted small molecules and KRAS pathway inhibitors. Complex spheroids include a stromal component modeled by human endothelial cells (HUVEC) and fibroblasts modeled by human mesenchymal stem cells (MSCs). The concentration ranges selected for each drug and investigational agent were based upon clinically achievable concentrations if the clinical Cmax of the agent was known.
Compounds. The drugs and investigational agents: BI-3406 (NSC825286), BAY-293 (NSC824723), batoprotafib (TNO155; NSC825523), sotorasib (AMG 510; NSC818433), MRTX1257 (NSC819558), elimusertib (BAY 1895344; NSC800525), molibresib (GSK525762; NSC774829), temuterkib (LY3214996; NSC803410), venetoclax (NSC766270), alisertib (NSC759677), olaparib (NSC753686), talazoparib (NSC767125), erdafitinib (NSC781556), ipatasertib (NSC767898), cabozantinib (NSC761068), nintedanib (NSC756659), abemaciclib (NSC768073), docetaxel (NSC628503), trametinib (NSC758246), and sapanisertib (NSC764658) were obtained from the National Cancer Institute (NCI) Developmental Therapeutics Program Chemical Repository. The FDA-approved anticancer drug set is available from the Developmental Therapeutics Program. […] The stock solutions were prepared in dimethyl sulfoxide (DMSO, Sigma-Aldrich, St. Louis, MO, cat. D2650) at 800-fold the tested concentration and stored at -70 degrees C prior to their use. All drugs and investigational agents were tested over a range starting from a high concentration at or near the clinical Cmax and decreasing in half-log increments. If the clinical Cmax for an agent had not been determined, the highest concentration tested was 10 microM.
Cell Culture. All cells were maintained in an incubator at 37 degrees C and 5% CO2 with 95% humidity. The PDC lines were cultured according to standard operating procedures established by the NCI PDMR (https://pdmr.cancer.gov/sops/default.htm). Briefly, all PDCs were thawed and cultured in Matrigel-coated flasks prepared with a working solution of 1X Ham's F-12 nutrient mix, without supplementation (Invitrogen, Waltham, MA, cat. 11765054), 100 U/mL penicillin-streptomycin (Invitrogen, cat. 15140122), and 2.5% Matrigel (Corning Inc., Corning, NY, cat. 354248) for the first three passages. All PDCs were cultured in complete DMEM/F-12 media containing advanced DMEM/F-12 (Invitrogen, cat. 12634028), 4.9% defined fetal bovine serum, heat inactivated (HyClone Laboratories Inc., Logan, UT, cat. SH30070.03HI), 389 ng/mL hydrocortisone (Sigma-Aldrich, cat. H4001), 9.7 ng/mL human EGF recombinant protein (Invitrogen, cat. PHG0313), 23.4 microg/mL adenine (Sigma-Aldrich, cat. A2786), 97.3 U/mL penicillin-streptomycin (Invitrogen, cat. 15140122), 1.9 mM L-glutamine (Invitrogen, cat. 25030081), and 9.7 microM Y-27632 dihydrochloride (Tocris Bioscience, Bristol, United Kingdom, cat. 1254). The PDCs were cultured in complete DMEM/F12 media without 9.7 microM Y-27632 dihydrochloride for at least two passages prior to the screen. The established cell line HOP-62 was cultured in RPMI 1640 medium, HEPES (Invitrogen, cat. 22400105) with 10% defined fetal bovine serum (HyClone Laboratories Inc., cat. SH30070.03) and 2 mM L-glutamine (Invitrogen, cat. 25030081). The pooled donor HUVEC were cultured in endothelial cell growth medium 2 (PromoCell, Heidelberg, Germany, cat. C-22011) and the hMSC were cultured in mesenchymal stem cell growth medium 2 (PromoCell, cat. C-28009). For all experiments, HUVEC and hMSC were used at passages </=5, while the malignant cell lines were used at passages </=15. […]

[1] = second compound 0.1 µM, first compound 0.0316 µM
[2] = second compound 0.1 µM, first compound 0.1 µM
[3] = second compound 0.316 µM, first compound 0.0316 µM
[4] = second compound 0.316 µM, first compound 0.1 µM
[5] = second compound 1 µM, first compound 0.0316 µM
[6] = second compound 1 µM, first compound 0.1 µM
[7] = second compound 3.16 µM, first compound 0.0316 µM
[8] = second compound 3.16 µM, first compound 0.1 µM
[9] = second compound 10 µM, first compound 0.0316 µM
[10] = second compound 10 µM, first compound 0.1 µM
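Further: spheroids exposed to compounds for seven days before readout.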

CC(C)n1nc(-c2ccc3oc(N)nc3c2)c2c(N)ncnc21 + CC1OCC2(CCN(c3cnc(Sc4ccnc(N)c4Cl)c(N)n3)CC2)C1N
IC50 (second compound 0.1 µM): 1.04 nM
IC50 (second compound 0.316 µM): 0.866 nM
IC50 (second compound 1 µM): 0.926 nM
IC50 (second compound 3.16 µM): 0.929 nM
IC50 (second compound 10 µM): 0.95 nM
viability, T/C (second compound 0.1 µM, first compound 0.000316 µM): 88.6%
viability, T/C (second compound 0.1 µM, first compound 0.001 µM): 51.3%
viability, T/C (second compound 0.1 µM, first compound 0.00316 µM): 12.7%
viability, T/C (second compound 0.1 µM, first compound 0.01 µM): 7.28%
viability, T/C [1]: 6.47%
viability, T/C [2]: 6.12%
viability, T/C (second compound 0.316 µM, first compound 0.000316 µM): 84.3%
viability, T/C (second compound 0.316 µM, first compound 0.001 µM): 45.1%
viability, T/C (second compound 0.316 µM, first compound 0.00316 µM): 13.2%
viability, T/C (second compound 0.316 µM, first compound 0.01 µM): 6.85%
viability, T/C [3]: 5.49%
viability, T/C [4]: 5.49%
viability, T/C (second compound 1 µM, first compound 0.000316 µM): 87%
viability, T/C (second compound 1 µM, first compound 0.001 µM): 47.4%
viability, T/C (second compound 1 µM, first compound 0.00316 µM): 15.5%
viability, T/C (second compound 1 µM, first compound 0.01 µM): 7.37%
viability, T/C [5]: 5.67%
viability, T/C [6]: 5.72%
viability, T/C (second compound 3.16 µM, first compound 0.000316 µM): 66.7%
viability, T/C (second compound 3.16 µM, first compound 0.001 µM): 48.9%
viability, T/C (second compound 3.16 µM, first compound 0.00316 µM): 13.8%
viability, T/C (second compound 3.16 µM, first compound 0.01 µM): 7.85%
viability, T/C [7]: 6.12%
viability, T/C [8]: 5.21%
viability, T/C (second compound 10 µM, first compound 0.000316 µM): 64.2%
viability, T/C (second compound 10 µM, first compound 0.001 µM): 49.4%
viability, T/C (second compound 10 µM, first compound 0.00316 µM): 15%
viability, T/C (second compound 10 µM, first compound 0.01 µM): 7.11%
viability, T/C [9]: 5.4%
viability, T/C [10]: 4.86%

COc1cc2nccc(Oc3ccc(NC(=O)C4(C(=O)Nc5ccc(F)cc5)CC4)cc3)c2cc1OC + CC1OCC2(CCN(c3cnc(Sc4ccnc(N)c4Cl)c(N)n3)CC2)C1N
IC50 (second compound 0.1 µM): 1700 nM
IC50 (second compound 0.316 µM): 1670 nM
IC50 (second compound 1 µM): 1530 nM
IC50 (second compound 3.16 µM): 1430 nM
IC50 (second compound 10 µM): 1350 nM
viability, T/C [1]: 113%
viability, T/C [2]: 104%
viability, T/C (second compound 0.1 µM, first compound 0.316 µM): 99.9%
viability, T/C (second compound 0.1 µM, first compound 1 µM): 78.6%
viability, T/C (second compound 0.1 µM, first compound 3.16 µM): 12.3%
viability, T/C (second compound 0.1 µM, first compound 10 µM): 21.2%
viability, T/C [3]: 108%
viability, T/C [4]: 98.4%
viability, T/C (second compound 0.316 µM, first compound 0.316 µM): 96.1%
viability, T/C (second compound 0.316 µM, first compound 1 µM): 79.1%
viability, T/C (second compound 0.316 µM, first compound 3.16 µM): 10.4%
viability, T/C (second compound 0.316 µM, first compound 10 µM): 17.9%
viability, T/C [5]: 104%
viability, T/C [6]: 114%
viability, T/C (second compound 1 µM, first compound 0.316 µM): 99.5%
viability, T/C (second compound 1 µM, first compound 1 µM): 68.7%
viability, T/C (second compound 1 µM, first compound 3.16 µM): 14.3%
viability, T/C (second compound 1 µM, first compound 10 µM): 22.5%
viability, T/C [7]: 94.4%
viability, T/C [8]: 99.7%
viability, T/C (second compound 3.16 µM, first compound 0.316 µM): 85.6%
viability, T/C (second compound 3.16 µM, first compound 1 µM): 66.1%
viability, T/C (second compound 3.16 µM, first compound 3.16 µM): 13.7%
viability, T/C (second compound 3.16 µM, first compound 10 µM): 15.5%
viability, T/C [9]: 86.4%
viability, T/C [10]: 80.9%
viability, T/C (second compound 10 µM, first compound 0.316 µM): 72.6%
viability, T/C (second compound 10 µM, first compound 1 µM): 61.5%
viability, T/C (second compound 10 µM, first compound 3.16 µM): 16.8%
viability, T/C (second compound 10 µM, first compound 10 µM): 17.3%
